In patent US8227616B2, “Cyanopyridine antibacterial agents and methods of use thereof” (Wisconsin Alumni Research Foundation, priority 2006, dated 2012):
Values after ≈ are worked out from the molar mass of the structure shown. Read-outs that look alike come from different tables or passages of the source.

Tests used:
S. aureus 10390 = assay: Time-dependent bacterial killing curves; type: cell-based, Staphylococcus aureus; details: 0.5x to 4x MIC, 0-6 h
Protocol: Solutions of compounds 4Bv, 6Ao, 9Cf, and linezolid were prepared in DMSO over a range of concentrations. […] At 0, 2, 4, and 6 h time points, […] samples were withdrawn from the test tubes, diluted into 10 mL of LB broth in a test tube, and swabbed in duplicate on agar plates to determine CFUs. These plates were incubated at 37° C. for 24 h, after which time the colonies were counted visually. […] Instead, 200 μL was removed from the test tube and directly swabbed on the agar plates.

[1] = system: S. epidermidis ATCC 12228; assay: MIC determination, species selectivity; type: cell-based; details: Staphylococcus epidermidis, ATCC12228; authentic sample, only trans isomers of chalcones; error reflects step size
Protocol: (§1) Each compound from Table 3 was tested for inhibitory activity at 2.5, 5, 7.5, 10, 15, 20, 25, and 30 μM in the susceptible overlaid strains: B. subtilis ATCC 6633, S. epidermidis ATCC 12228, and K. pneumoniae ATCC 4352. MIC assays were run in quadruplicate as described above (with shaking).

[2] = system: B. subtilis subsp. spizizenii ATCC 6633; assay: MIC determination, species selectivity; type: cell-based; details: Bacillus subtilis, ATCC6633; authentic sample, only trans isomers of chalcones; error reflects step size
Protocol: as §1

S. aureus ATCC 10390 = assay: Estimated MIC, solution-phase microdilution absorbance assay with crude macroarray spot stock solutions; type: cell-based, Staphylococcus aureus; details: for MIC: Staphylococcus aureus, ATCC10390, 12 h
Protocol: Spots from a new 69 member chalcone macroarray as well as the three heterocyclic macroarrays prepared earlier were punched out, cleaved, and eluted with acetonitrile. The resulting solutions were concentrated to a residue that was taken up in DMSO to form 2 mM stock solutions.
From the stock solutions, microdilution assays in a 96 well plate starting at 50 μM were performed in quadruplicate. Each well contained 5 μL of the stock solution as well as 195 μL of a S. aureus culture. The turbidity of each well was measured after incubating 12 hours using a standard plate reader. Active compounds can be further diluted and the assay repeated.
To acquire more quantitative antibacterial activity data about our compounds and verify our on-support assay results, we performed solution-phase absorbance assays that provided estimates of the minimum inhibitory concentration (MIC) of each macroarray member against S. aureus. Stock solutions (ca. 2 mM) were generated by cleaving and eluting 198 individual compounds from chalcone (3) and heterocyclic macroarrays (5, 7, and 8). […] The good overall purities of the crude macroarray compounds allowed for reasonable estimations of MICs.
For estimated MIC determination, DMSO was added to the dried compound residue obtained from a single spot to afford ca. 100 μL of a 2 mM stock solution. Aliquots (5 μL) of these solutions were added to a 96-well plate, followed by 195 μL of diluted S. aureus 10390 (10^6 CFUs/mL) to yield ca. 50 μM final concentrations. The plates were swirled for 1 h to ensure compound dissolution, incubated for 12 h at 37° C., and the absorbance at 595 nm was recorded using a plate reader. […] Actual MIC values were determined for lead compounds resynthesized in solution using an analogous procedure with solutions of known concentration (see).
Preparation of spot samples and controls. An aliquot of DMSO (ca. 100 μL depending on the loading of the parent hydroxyacetophenone) was added to the dried compound residue obtained after TFA cleavage and elution from a single spot. This afforded a 2.0 mM “spot stock” solution for each spot. A small aliquot of each “spot stock” solution was saved for subsequent LC-MS analysis.
For estimated MIC screens, 5.0 μL portions of the “spot stock” solutions were added to the appropriate wells in a sterile, polystyrene 96-well plate to yield ca. 50 μM solutions (dependent on the initial loading of hydroxyacetopheneone and compound purity). To the positive and negative control wells, 5.0 μL of DMSO were added (positive controls contained bacteria but no compound, while negative controls had neither compound nor bacteria). All estimated MIC assays were performed in quadruplicate. Note: the MIC value is defined as the lowest concentration where no bacterial growth occurs.
Representative estimated MIC assay procedure. This assay procedure is based in part on the method reported by Strøm et al.^xiii A 400 μL portion of overnight S. aureus 10390 culture was diluted with 100 mL of sterile LB broth to give ca. 10^6 CFUs per mL. Aliquots (195 μL) of this solution were added to all of the wells in a sterile 96-well plate (except for the negative control wells; 195 μL of sterile LB broth were added to these wells). The plates were placed on an orbital shaker table and gently swirled for 1 h to ensure compound dissolution, and then incubated (without shaking) for 12 h at 37° C. The absorbance at 595 nm was recorded using a plate reader.
The original “spot stock” solutions of these compounds were diluted with DMSO to give ca. 25 and 13 μM final concentrations and tested for inhibitory activities using the procedure described above.

MIC [1]: 3.8 ± 1.2 µM (≈ 1.37 µg/mL)
MIC [2]: 8.8 ± 1.2 µM (≈ 3.17 µg/mL)
MIC (S. aureus ATCC 10390; Table 2, serial dilution of stock solutions obtained by SPOT-synthesis, read-out: estimated MIC range): 6.25 to 12.5 µM (≈ 2.25 to 4.5 µg/mL)
MIC (S. aureus ATCC 10390; Table 3, serial dilution of spot stock solutions of crude macroarray compounds, read-out: S. aureus Estimated MIC range): < 12.5 µM
Compound: O=C(/C=C/c1cc(C(F)(F)F)cc(C(F)(F)F)c1)c1cccc(O)c1 [Compound 4Bv, 3′-hydroxy-3,5-bis(trifluoromethyl)chalcone]
mode of activity (bacteriostatic or bactericidal) (S. aureus 10390): bacteriostatic
inhibition of S. aureus at the 12.5 μM level (S. aureus ATCC 10390; 12.5 μM, macroarray stock solutions diluted four fold): complete inhibition
